System: human iPS cells 0901B
Experiment: Pluripotency markers Oct4 and SSEA4 by FACS
Format: cell-based
Details: 50 μM, five passages, FIG. 15
Method: Analytical flow cytometry was performed on a FACSCalibur flow cytometer (BD Biosciences) as described in Chiang et al. Acta Biomater. 6, 1904-1916 (2010), with an additional permeabilization step with 0.25% Triton-X (Sigma) for 10 min at 4° C. Oct4 (Millipore), SSEA-4 (Developmental Studies Hybridoma Bank) and Ki67 (Millipore) and all secondary antibodies (Jackson ImmunoResearch) were used at 1:100.

QHREDGS (angiopoietin 1 peptide)
expression of Oct4 and SSEA4 (FACS): comparable to both PBS and DGQESHR scrambled peptide controls

Reference: patent publication US9096643B2, “Cell-protective peptides and uses thereof” (priority 2010, dated 2015)
